# Laboratory results from patent publication US20180000778A1, “SMALL MOLECULE ANTAGONISTS OF DUSP5 AND METHODS OF USE” (THE MEDICAL COLLEGE OF WISCONSIN, INC., priority 2015, published 2018).
# Several values for one entry are separate records, joined by “and”; a condition that tells them apart may be missing. Identical values can stand only once.
# Tests used:
# [1] = molecular target: mutant DUSP5 (Homo sapiens, UniProt Q16690, S147P); assay: Restoration of mutant DUSP5 function
# [2] = molecular target: T1, PTPN1 (Homo sapiens, UniProt P18031); assay: Phosphatase inhibition profiles (Table 4), initial rates; assay type: biochemical
# T1 sequence (P18031 1-435): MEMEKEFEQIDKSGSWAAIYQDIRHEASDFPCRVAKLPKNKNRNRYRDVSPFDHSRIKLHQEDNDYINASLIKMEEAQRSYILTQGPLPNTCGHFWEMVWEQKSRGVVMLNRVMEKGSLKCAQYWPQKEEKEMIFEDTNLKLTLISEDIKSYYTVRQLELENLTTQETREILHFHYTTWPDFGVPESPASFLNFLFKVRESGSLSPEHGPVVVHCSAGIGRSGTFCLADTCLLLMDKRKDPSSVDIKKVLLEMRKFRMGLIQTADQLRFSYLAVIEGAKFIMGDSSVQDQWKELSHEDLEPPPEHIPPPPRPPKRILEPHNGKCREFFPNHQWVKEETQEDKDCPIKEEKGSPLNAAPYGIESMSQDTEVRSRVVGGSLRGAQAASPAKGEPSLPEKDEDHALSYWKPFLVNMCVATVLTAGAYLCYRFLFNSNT
# [3] = molecular target: T2, GST-tagged full length DUSP5 (Homo sapiens, UniProt Q16690); assay: pNPP assay with GST-tagged full length DUSP5; assay type: biochemical; conditions: full length DUSP5, pNPP as substrate; listed as CSD3-2320
# T2 construct: GST-tagged full length DUSP5, when pNPP was used as a substrate
# [4] = molecular target: T3, DUSP5 (PD)-WT (Homo sapiens, UniProt Q16690); assay: Phosphatase inhibition profiles (Table 4), initial rates; assay type: biochemical; conditions: using ERK2 as substrate, read-out: IC50 DUSP5 (PD)-WT (mean ± SE)
# T3 construct: hexa-histidine (N); made in house; host or cells: E. coli BL21(DE3)
# T3 sequence (Q16690 178-319): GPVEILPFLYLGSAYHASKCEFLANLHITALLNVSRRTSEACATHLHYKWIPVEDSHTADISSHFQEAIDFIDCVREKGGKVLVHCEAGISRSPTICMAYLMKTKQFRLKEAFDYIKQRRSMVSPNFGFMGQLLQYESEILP
# [5] = molecular target: CDC25A (Homo sapiens, UniProt P30304); assay: Phosphatase profiling, Biomol Green; assay type: biochemical; conditions: 30 μM, triplicate; positive = activation
# Procedure: (§1) Assays were performed to profile compound CSDDD2320 against 21 phosphatase targets at 1 concentration (30 μM) in triplicate measurements. The aim was to identify whether the compound can affect the activity of the various phosphatase targets selected.
# (§2) The PTPN6 (SHP1), PTPRF (LAR), PP1A, PP1B, PP2A, PTPN12(PTP-PEST), PTPN11(SHP2), CDC25A, CDC25B, CDC25C, PP2Ca, and PP2Cg phosphatase activity was determined by performing assays at 37° C. for 15 minutes in a final volume of 50 μl according to the following assay reaction recipe:
# (§3) Component 1. 10 μl of diluted active protein phosphatase
# (§4) Component 2. 5 μl of 1 mM tyrosine phosphopeptide-2 substrate (for PTPN6, PTPRF, PTPN12, and PTPN11) or threonine phosphopeptide substrate (for PP1A, PP1B, PP2A and PP2Cg) or PI(3,4,5)P3 substrate (for PTEN) or OMFP substrate (for CDC25A, CDC25B and CDC25C)
# (§5) Component 3. 25 μl of phosphatase assay buffer
# (§6) Component 4. 10 μl of compound (150 μM) or 10% DMSO
# (§7) The assay was started by incubating the reaction mixture at 37° C. for 15 minutes. After the 15 minutes incubation period, the assay was terminated by the addition of 100 μl of Biomol Green reagent. The absorbance of the reaction solution was measured in a spectrophotometer at 650 nm. Blank control was set up that included all the assay components except the addition of the tyrosine phosphopeptide-2 substrate or related substrate (replace with equal volume of phosphatase assay buffer). The corrected activity for various phosphatase targets was determined by removing the blank control value.
# [6] = molecular target: PP1A (Homo sapiens, UniProt P62136); assay: Phosphatase profiling, Biomol Green; assay type: biochemical; conditions: 30 μM, triplicate; negative = inhibition
# Procedure: as §1, §2, §3, §4, §5, §6, §7
# [7] = molecular target: PP2Cg (Homo sapiens, UniProt O15355); assay: Phosphatase profiling, Biomol Green; assay type: biochemical; conditions: 30 μM, triplicate
# Procedure: as §1, §2, §3, §4, §5, §6, §7
# [8] = molecular target: PTPN6 (SHP1) (Homo sapiens, UniProt P29350); assay: Phosphatase profiling, Biomol Green; assay type: biochemical; conditions: 30 μM, triplicate; negative = inhibition
# Procedure: as §1, §2, §3, §4, §5, §6, §7
# [9] = molecular target: PTPN11 (SHP2) (Homo sapiens, UniProt Q06124); assay: Phosphatase profiling, Biomol Green; assay type: biochemical; conditions: 30 μM, triplicate; positive = activation
# Procedure: as §1, §2, §3, §4, §5, §6, §7
# [10] = molecular target: CDC25C (Homo sapiens, UniProt P30307); assay: Phosphatase profiling, Biomol Green; assay type: biochemical; conditions: 30 μM, triplicate; positive = activation
# Procedure: as §1, §2, §3, §4, §5, §6, §7
# [11] = molecular target: PTPRF (LAR) (Homo sapiens, UniProt P10586); assay: Phosphatase profiling, Biomol Green; assay type: biochemical; conditions: 30 μM, triplicate
# Procedure: as §1, §2, §3, §4, §5, §6, §7
# [12] = tested on: PP2A; assay: Phosphatase profiling, Biomol Green; assay type: biochemical; conditions: 30 μM, triplicate; negative = inhibition
# Procedure: as §1, §2, §3, §4, §5, §6, §7
# [13] = molecular target: CDC25B (Homo sapiens, UniProt P30305); assay: Phosphatase profiling, Biomol Green; assay type: biochemical; conditions: 30 μM, triplicate
# Procedure: as §1, §2, §3, §4, §5, §6, §7
# [14] = molecular target: PP1B (Homo sapiens, UniProt P62140); assay: Phosphatase profiling, Biomol Green; assay type: biochemical; conditions: 30 μM, triplicate; negative = inhibition
# Procedure: as §1, §2, §3, §4, §5, §6, §7
# [15] = molecular target: PTPN12 (PTP-PEST) (Homo sapiens, UniProt Q05209); assay: Phosphatase profiling, Biomol Green; assay type: biochemical; conditions: 30 μM, triplicate; negative = inhibition
# Procedure: as §1, §2, §3, §4, §5, §6, §7
# [16] = molecular target: PP2Ca (Homo sapiens, UniProt P35813); assay: Phosphatase profiling, Biomol Green; assay type: biochemical; conditions: 30 μM, triplicate; negative = inhibition
# Procedure: as §1, §2, §3, §4, §5, §6, §7
# T2 sequence (Q16690 whole entry): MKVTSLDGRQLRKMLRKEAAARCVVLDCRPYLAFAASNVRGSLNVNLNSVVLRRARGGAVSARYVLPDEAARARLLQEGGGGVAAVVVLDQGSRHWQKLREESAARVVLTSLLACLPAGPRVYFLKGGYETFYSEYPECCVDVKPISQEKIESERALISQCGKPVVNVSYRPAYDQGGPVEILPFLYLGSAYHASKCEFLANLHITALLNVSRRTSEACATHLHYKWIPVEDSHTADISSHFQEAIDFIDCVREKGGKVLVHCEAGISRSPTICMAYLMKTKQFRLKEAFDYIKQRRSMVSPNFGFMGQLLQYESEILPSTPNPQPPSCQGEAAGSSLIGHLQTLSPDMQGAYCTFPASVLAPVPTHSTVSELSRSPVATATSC
# Chain of PP1B (P62140 whole entry, species assumed): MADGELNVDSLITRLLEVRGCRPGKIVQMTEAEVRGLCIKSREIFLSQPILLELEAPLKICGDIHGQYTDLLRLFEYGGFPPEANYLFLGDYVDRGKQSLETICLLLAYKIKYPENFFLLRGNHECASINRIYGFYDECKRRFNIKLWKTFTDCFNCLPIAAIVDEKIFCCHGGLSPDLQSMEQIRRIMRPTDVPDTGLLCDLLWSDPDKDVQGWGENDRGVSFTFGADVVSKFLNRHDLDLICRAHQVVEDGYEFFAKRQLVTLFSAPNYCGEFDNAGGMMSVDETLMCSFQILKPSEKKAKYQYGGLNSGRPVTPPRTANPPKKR
# Chain of PTPN6 (SHP1) (P29350 whole entry, species assumed): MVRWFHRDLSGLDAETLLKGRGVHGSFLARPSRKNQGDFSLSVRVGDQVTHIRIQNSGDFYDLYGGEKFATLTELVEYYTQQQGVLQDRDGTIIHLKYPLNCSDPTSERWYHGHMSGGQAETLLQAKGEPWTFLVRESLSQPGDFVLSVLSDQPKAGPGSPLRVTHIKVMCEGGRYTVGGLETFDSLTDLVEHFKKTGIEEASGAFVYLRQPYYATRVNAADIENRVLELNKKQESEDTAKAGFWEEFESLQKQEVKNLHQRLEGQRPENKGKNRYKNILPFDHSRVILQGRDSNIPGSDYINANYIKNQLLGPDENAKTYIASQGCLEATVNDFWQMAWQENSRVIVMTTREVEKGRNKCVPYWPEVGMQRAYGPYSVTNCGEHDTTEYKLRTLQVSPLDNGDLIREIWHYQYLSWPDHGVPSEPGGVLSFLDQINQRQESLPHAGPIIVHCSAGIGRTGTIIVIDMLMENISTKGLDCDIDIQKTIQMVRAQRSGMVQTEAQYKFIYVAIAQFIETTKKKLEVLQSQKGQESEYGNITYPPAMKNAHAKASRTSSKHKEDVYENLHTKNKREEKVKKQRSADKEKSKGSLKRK
# Chain of CDC25C (P30307 whole entry, species assumed): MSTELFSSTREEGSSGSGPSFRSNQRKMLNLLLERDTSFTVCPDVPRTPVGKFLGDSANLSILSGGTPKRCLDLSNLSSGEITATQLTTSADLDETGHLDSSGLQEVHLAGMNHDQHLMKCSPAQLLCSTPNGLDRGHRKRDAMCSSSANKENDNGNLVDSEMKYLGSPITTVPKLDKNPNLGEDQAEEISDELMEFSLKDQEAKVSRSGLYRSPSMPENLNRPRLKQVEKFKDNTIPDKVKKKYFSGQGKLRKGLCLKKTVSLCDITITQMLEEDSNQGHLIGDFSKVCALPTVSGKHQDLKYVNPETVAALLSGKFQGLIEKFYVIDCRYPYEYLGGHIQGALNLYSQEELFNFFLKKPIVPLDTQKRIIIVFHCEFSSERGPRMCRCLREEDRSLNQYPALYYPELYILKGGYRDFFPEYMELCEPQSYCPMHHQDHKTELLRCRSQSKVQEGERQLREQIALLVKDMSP
# Chain of PP1A (P62136 whole entry, species assumed): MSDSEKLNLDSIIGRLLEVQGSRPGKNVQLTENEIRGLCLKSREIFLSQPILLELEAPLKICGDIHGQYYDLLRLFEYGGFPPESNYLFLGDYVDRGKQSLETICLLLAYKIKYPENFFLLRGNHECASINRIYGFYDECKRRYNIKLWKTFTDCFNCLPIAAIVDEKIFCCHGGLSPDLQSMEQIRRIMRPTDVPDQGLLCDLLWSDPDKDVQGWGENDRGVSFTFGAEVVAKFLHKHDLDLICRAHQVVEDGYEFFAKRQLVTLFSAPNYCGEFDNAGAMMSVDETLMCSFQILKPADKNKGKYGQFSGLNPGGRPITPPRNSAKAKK
# Chain of mutant DUSP5 (Q16690 whole entry S147P): as the sequence (Q16690 whole entry) above, with S147P counted along it
# Chain of PTPN12 (PTP-PEST) (Q05209 whole entry, species assumed): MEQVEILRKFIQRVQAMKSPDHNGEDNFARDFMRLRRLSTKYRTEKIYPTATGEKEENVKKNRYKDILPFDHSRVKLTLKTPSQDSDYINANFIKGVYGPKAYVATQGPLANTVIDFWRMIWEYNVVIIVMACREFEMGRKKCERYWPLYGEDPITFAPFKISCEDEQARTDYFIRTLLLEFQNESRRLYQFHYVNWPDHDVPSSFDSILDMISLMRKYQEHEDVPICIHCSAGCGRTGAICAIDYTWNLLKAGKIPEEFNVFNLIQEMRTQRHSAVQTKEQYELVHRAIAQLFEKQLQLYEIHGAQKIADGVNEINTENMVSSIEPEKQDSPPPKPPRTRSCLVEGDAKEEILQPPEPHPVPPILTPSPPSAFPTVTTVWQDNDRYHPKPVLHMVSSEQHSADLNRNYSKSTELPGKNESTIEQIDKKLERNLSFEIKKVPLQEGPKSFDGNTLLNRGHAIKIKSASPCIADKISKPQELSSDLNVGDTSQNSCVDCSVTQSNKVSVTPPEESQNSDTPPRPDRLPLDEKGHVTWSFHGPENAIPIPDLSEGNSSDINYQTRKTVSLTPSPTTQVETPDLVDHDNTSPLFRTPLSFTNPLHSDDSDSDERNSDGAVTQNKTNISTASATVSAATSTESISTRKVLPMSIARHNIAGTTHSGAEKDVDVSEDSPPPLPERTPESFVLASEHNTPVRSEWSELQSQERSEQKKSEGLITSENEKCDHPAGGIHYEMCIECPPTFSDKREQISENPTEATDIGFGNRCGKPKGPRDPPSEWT
# Chain of CDC25A (P30304 whole entry, species assumed): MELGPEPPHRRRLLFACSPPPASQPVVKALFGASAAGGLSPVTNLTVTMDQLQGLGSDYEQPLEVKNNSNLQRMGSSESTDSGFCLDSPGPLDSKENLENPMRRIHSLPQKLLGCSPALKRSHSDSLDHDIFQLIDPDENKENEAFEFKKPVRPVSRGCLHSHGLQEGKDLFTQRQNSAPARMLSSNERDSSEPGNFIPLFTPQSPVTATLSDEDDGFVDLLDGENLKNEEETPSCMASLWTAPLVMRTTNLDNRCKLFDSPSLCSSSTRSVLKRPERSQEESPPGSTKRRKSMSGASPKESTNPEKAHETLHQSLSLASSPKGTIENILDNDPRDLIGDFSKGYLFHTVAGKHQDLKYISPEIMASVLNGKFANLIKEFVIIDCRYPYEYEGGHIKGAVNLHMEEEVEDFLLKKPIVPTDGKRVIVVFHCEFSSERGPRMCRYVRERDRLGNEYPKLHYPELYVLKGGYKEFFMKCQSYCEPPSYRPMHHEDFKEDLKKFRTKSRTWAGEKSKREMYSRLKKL
# Chain of CDC25B (P30305 whole entry, species assumed): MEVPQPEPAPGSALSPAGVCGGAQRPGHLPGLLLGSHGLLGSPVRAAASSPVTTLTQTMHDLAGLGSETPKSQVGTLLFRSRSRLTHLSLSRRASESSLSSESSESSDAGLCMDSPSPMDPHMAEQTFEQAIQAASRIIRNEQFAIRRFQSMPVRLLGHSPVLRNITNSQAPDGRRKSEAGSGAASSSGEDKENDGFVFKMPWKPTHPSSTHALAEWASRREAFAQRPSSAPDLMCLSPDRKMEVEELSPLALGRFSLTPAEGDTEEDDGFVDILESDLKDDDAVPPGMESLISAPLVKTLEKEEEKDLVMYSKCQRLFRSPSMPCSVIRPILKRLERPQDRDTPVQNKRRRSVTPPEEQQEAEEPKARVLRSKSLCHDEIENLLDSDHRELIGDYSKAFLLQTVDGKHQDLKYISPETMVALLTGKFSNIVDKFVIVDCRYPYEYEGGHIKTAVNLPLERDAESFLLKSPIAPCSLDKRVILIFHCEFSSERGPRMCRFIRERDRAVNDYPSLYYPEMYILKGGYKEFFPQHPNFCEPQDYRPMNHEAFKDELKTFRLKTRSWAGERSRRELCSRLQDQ
# Chain of PP2Cg (O15355 whole entry): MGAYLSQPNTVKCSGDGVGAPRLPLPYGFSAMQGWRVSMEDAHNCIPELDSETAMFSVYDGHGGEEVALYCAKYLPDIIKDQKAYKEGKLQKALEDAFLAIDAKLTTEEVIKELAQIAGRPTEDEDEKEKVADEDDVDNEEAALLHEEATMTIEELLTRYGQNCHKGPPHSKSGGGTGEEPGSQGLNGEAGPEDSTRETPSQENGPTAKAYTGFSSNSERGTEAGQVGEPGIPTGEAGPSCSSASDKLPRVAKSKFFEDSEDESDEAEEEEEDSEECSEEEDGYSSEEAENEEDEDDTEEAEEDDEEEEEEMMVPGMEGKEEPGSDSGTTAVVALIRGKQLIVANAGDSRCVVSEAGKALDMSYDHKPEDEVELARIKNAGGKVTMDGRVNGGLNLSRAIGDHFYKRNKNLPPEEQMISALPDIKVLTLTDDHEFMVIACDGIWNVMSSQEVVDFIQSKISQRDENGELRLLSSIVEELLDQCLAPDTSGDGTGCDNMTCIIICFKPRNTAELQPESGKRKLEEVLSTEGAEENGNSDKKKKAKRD
# Chain of PP2Ca (P35813 whole entry): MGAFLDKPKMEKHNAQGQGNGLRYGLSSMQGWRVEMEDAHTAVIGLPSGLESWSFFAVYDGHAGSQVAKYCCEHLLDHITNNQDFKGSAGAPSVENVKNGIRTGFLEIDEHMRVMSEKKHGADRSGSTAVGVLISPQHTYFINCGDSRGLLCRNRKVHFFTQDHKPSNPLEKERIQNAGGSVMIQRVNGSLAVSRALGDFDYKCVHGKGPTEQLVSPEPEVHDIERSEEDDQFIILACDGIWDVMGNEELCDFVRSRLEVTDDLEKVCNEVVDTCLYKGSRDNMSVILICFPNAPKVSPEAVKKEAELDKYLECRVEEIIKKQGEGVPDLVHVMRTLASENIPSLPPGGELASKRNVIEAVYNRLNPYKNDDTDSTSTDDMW
IC50 PTPN1 (mean ± SE) [2],IC50 [3],IC50 [4],% Change (activity change compared to control) [5],% Change (activity change compared to control) [6],% Change (activity change compared to control) [7],% Change (activity change compared to control) [8],% Change (activity change compared to control) [9],% Change (activity change compared to control) [10],% Change (activity change compared to control) [11],% Change (activity change compared to control) [12],% Change (activity change compared to control) [13],% Change (activity change compared to control) [14],% Change (activity change compared to control) [15],% Change (activity change compared to control) [16],SMILES,effect on mutant DUSP5 function [1]
,,,,,,,,,,,,,,,"O=S(=O)([O-])c1ccc2[nH]c3c(S(=O)(=O)[O-])cc(S(=O)(=O)[O-])cc3c2c1.[Na+].[Na+].[Na+] [RR505, Carbazole-1,3,6-trisulfonic acid, Trisodium Salt]",appears to restore mutant DUSP5's function
Does not inhibit,563 µM and 561 µM,> 1000 µM,7%,−3%,0%,−5%,4%,4%,0%,−3%,0%,−1%,−1%,−7%,O=S(=O)(O)c1cc(O)c2c(S(=O)(=O)O)cccc2c1 [RR527],
